Assay results as given in publication PMC7226417, “Utilizing Genome-Wide mRNA Profiling to Identify the Cytotoxic Chemotherapeutic Mechanism of Triazoloacridone C-1305 as Direct Microtubule Stabilization” (Cancers, 2020).

Test system: T1, tubulin (α/β tubulin dimer)
T1 construct: with α- and β-tubulin heterodimer
Assay: in vitro tubulin polymerization assay, turbidity at […] nm (stabilization of polymerization)
Type: biochemical

EC50: 2740 nM
Structure (SMILES): CN(C)CCCNc1ccc2nnn3c4ccc(O)cc4c(=O)c1c23 [C-1305, 5-{[3-(Dimethylamino)propyl]amino}-8-hydroxy-6H-[1,2,3]triazolo[4,5,1-de]acridin-6-one]
